Data reported in US5563172A, “Macrocyclic amide and urea immunomodulators” (Abbott Laboratories, priority 1994, dated 1996).

The compounds below were run on human mixed lymphocyte reaction (MLR) (assay: human mixed lymphocyte reaction (MLR) assay, immunosuppressant activity). Conditions: Table 1.
Format: cell-based
Description: The immunosuppressant activity of the compounds of the present invention was determined using the human mixed lymphocyte reaction (MLR) assay described by Kino, T. et al. in Transplantation Proceedings, XIX(5):36-39,Suppl. 6 (1987).
In the case of `CCOC(=O)COC1CCC(C=C(C)C2OC(=O)C3CCCCN3C(=O)C(=O)C3(O)OC(C(OC)CC(C)CC(C)=CC(CC)C(=O)CC(O)C2C)C(OC)CC3C)CC1OC` (centres unmarked) [Example 1], the IC50 is reported as 0.9 nM. `CCC1C=C(C)CC(C)CC(OC)C2OC(O)(C(=O)C(=O)N3CCCCC3C(=O)OC(C(C)=CC3CCC(OCC(=O)OCc4ccccc4)C(OC)C3)C(C)C(O)CC1=O)C(C)CC2OC` (centres unmarked) [Example 2] gave an IC50 of 7.6 nM. Compound `CCC1C=C(C)CC(C)CC(OC)C2OC(O)(C(=O)C(=O)N3CCCCC3C(=O)OC(C(C)=CC3CCC(OCC(=O)O)C(OC)C3)C(C)C(O)CC1=O)C(C)CC2OC` (centres unmarked) [Example 3] has an IC50 of 140 nM. With `CCC1C=C(C)CC(C)CC(OC)C2OC(O)(C(=O)C(=O)N3CCCCC3C(=O)OC(C(C)=CC3CCC(OCC(=O)NCc4ccccc4)C(OC)C3)C(C)C(O)CC1=O)C(C)CC2OC` (centres unmarked) [Example 4] the IC50 was 0.5 nM. With `CCC1C=C(C)CC(C)CC(OC)C2OC(O)(C(=O)C(=O)N3CCCCC3C(=O)OC(C(C)=CC3CCC(OCC(N)=O)C(OC)C3)C(C)C(O)CC1=O)C(C)CC2OC` (centres unmarked) [Example 6] the IC50 was 0.1 nM. Work on `CCC1C=C(C)CC(C)CC(OC)C2OC(O)(C(=O)C(=O)N3CCCCC3C(=O)OC(C(C)=CC3CCC(OCC(=O)N4CCOCC4)C(OC)C3)C(C)C(O)CC1=O)C(C)CC2OC` (centres unmarked) [Example 29] yielded an IC50 of 0.7 nM. Compound `CCC1C=C(C)CC(C)CC(OC)C2OC(O)(C(=O)C(=O)N3CCCCC3C(=O)OC(C(C)=CC3CCC(OCC(=O)NCCCO)C(OC)C3)C(C)C(O)CC1=O)C(C)CC2OC` (centres unmarked) [Example 31] has an IC50 of 1.1 nM. In the case of `CCC1C=C(C)CC(C)CC(OC)C2OC(O)(C(=O)C(=O)N3CCCCC3C(=O)OC(C(C)=CC3CCC(OCC(=O)NCC(=O)O)C(OC)C3)C(C)C(O)CC1=O)C(C)CC2OC` (centres unmarked) [Example 39], the IC50 is reported as 173 nM. For `CCC1C=C(C)CC(C)CC(OC)C2OC(O)(C(=O)C(=O)N3CCCCC3C(=O)OC(C(C)=CC3CCC(OCC(=O)NN4CCOCC4)C(OC)C3)C(C)C(O)CC1=O)C(C)CC2OC` (centres unmarked) [Example 51], the IC50 was 0.3 nM. Compound `CCC1C=C(C)CC(C)CC(OC)C2OC(O)(C(=O)C(=O)N3CCCCC3C(=O)OC(C(C)=CC3CCC(OCC(=O)Nc4ccc(C(F)(F)F)cc4)C(OC)C3)C(C)C(O)CC1=O)C(C)CC2OC` (centres unmarked) [Example 53] has an IC50 of 0.2 nM. With `CCC1C=C(C)CC(C)CC(OC)C2OC(O)(C(=O)C(=O)N3CCCCC3C(=O)OC(C(C)=CC3CCC(OCC(=O)Nc4ccc(F)cc4)C(OC)C3)C(C)C(O)CC1=O)C(C)CC2OC` (centres unmarked) [Example 54] the IC50 was 0.02 nM. In the case of `CCC1C=C(C)CC(C)CC(OC)C2OC(O)(C(=O)C(=O)N3CCCCC3C(=O)OC(C(C)=CC3CCC(OCC(=O)Nc4cccnc4)C(OC)C3)C(C)C(O)CC1=O)C(C)CC2OC` (centres unmarked) [Example 57], the IC50 is reported as 0.1 nM. For `CCC1C=C(C)CC(C)CC(OC)C2OC(O)(C(=O)C(=O)N3CCCCC3C(=O)OC(C(C)=CC3CCC(OCC(=O)Nc4ccncc4)C(OC)C3)C(C)C(O)CC1=O)C(C)CC2OC` (centres unmarked) [Example 58], the IC50 was 0.15 nM. `CCC1C=C(C)CC(C)CC(OC)C2OC(O)(C(=O)C(=O)N3CCCCC3C(=O)OC(C(C)=CC3CCC(OCC(=O)Nc4ccccn4)C(OC)C3)C(C)C(O)CC1=O)C(C)CC2OC` (centres unmarked) [Example 59] gave an IC50 of 0.05 nM. `CCC1C=C(C)CC(C)CC(OC)C2OC(O)(C(=O)C(=O)N3CCCCC3C(=O)OC(C(C)=CC3CCC(OCC(=O)NNC(=O)c4ccncc4)C(OC)C3)C(C)C(O)CC1=O)C(C)CC2OC` (centres unmarked) [Example 71] gave an IC50 of 0.1 nM. `CCC1C=C(C)CC(C)CC(OC)C2OC(O)(C(=O)C(=O)N3CCCCC3C(=O)OC(C(C)=CC3CCC(OCC(=O)Nc4cccc(F)c4)C(OC)C3)C(C)C(O)CC1=O)C(C)CC2OC` (centres unmarked) [Example 72] showed an IC50 of 0.08 nM. For `CCC1C=C(C)CC(C)CC(OC)C2OC(O)(C(=O)C(=O)N3CCCCC3C(=O)OC(C(C)=CC3CCC(OCC(=O)Nc4cccc(O)c4)C(OC)C3)C(C)C(O)CC1=O)C(C)CC2OC` (centres unmarked) [Example 73], the IC50 was 0.04 nM. `CCC1C=C(C)CC(C)CC(OC)C2OC(O)(C(=O)C(=O)N3CCCCC3C(=O)OC(C(C)=CC3CCC(OCC(=O)N4CCN(C)CC4)C(OC)C3)C(C)C(O)CC1=O)C(C)CC2OC` (centres unmarked) [Example 74] showed an IC50 of 0.06 nM. `CCC1C=C(C)CC(C)CC(OC)C2OC(O)(C(=O)C(=O)N3CCCCC3C(=O)OC(C(C)=CC3CCC(OCC(=O)NCCc4ccccc4)C(OC)C3)C(C)C(O)CC1=O)C(C)CC2OC` (centres unmarked) [Example 82] showed an IC50 of 0.3 nM. `CCC1C=C(C)CC(C)CC(OC)C2OC(O)(C(=O)C(=O)N3CCCCC3C(=O)OC(C(C)=CC3CCC(OCC(=O)N(C)CCc4ccccc4)C(OC)C3)C(C)C(O)CC1=O)C(C)CC2OC` (centres unmarked) [Example 83] was tested, and the IC50 was 0.4 nM. `CCC1C=C(C)CC(C)CC(OC)C2OC(O)(C(=O)C(=O)N3CCCCC3C(=O)OC(C(C)=CC3CCC(OCC(=O)Nc4ccccc4)C(OC)C3)C(C)C(O)CC1=O)C(C)CC2OC` (centres unmarked) [Example 85] showed an IC50 of 0.5 nM. Work on `CCC1C=C(C)CC(C)CC(OC)C2OC(O)(C(=O)C(=O)N3CCCCC3C(=O)OC(C(C)=CC3CCC(OCC(=O)NCCCN4CCOCC4)C(OC)C3)C(C)C(O)CC1=O)C(C)CC2OC` (centres unmarked) [Example 87] yielded an IC50 of 1.1 nM. For `CCC1C=C(C)CC(C)CC(OC)C2OC(O)(C(=O)C(=O)N3CCCCC3C(=O)OC(C(C)=CC3CCC(OCC(=O)NCCN(C)C)C(OC)C3)C(C)C(O)CC1=O)C(C)CC2OC` (centres unmarked) [Example 88], the IC50 was 0.1 nM. Compound `CCC1C=C(C)CC(C)CC(OC)C2OC(O)(C(=O)C(=O)N3CCCCC3C(=O)OC(C(C)=CC3CCC(OCC(=O)NCCCN(C)C)C(OC)C3)C(C)C(O)CC1=O)C(C)CC2OC` (centres unmarked) [Example 89] has an IC50 of 0.5 nM. `CCC1C=C(C)CC(C)CC(OC)C2OC(O)(C(=O)C(=O)N3CCCCC3C(=O)OC(C(C)=CC3CCC(OCNC(=O)N4CCOCC4)C(OC)C3)C(C)C(O)CC1=O)C(C)CC2OC` (centres unmarked) [Example 111] showed an IC50 of 1.8 nM. In the case of `CCC1C=C(C)CC(C)CC(OC)C2OC(O)(C(=O)C(=O)N3CCCCC3C(=O)OC(C(C)=CC3CCC(OCNC(=O)Nc4ccccc4)C(OC)C3)C(C)C(O)CC1=O)C(C)CC2OC` (centres unmarked) [Example 112], the IC50 is reported as 0.1 nM.
